Test results reported in PubChem BioAssay (NCI).
Several values for one entry are separate records, joined by “and”; a condition that tells them apart may be missing. Identical values can stand only once.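 Method: 48-hour compound exposure of cells in 96-well plates, five concentrations, linear interpolation of endpoints. Here, GI50 denotes the concentration required for 50% inhibition of growth. TGI marks complete inhibition of growth.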

Assays:
Assay in all cases: inhibition of tumour cell growth, NCI panel, 48 h
HL-60(TB) leukemia = tested on: HL-60(TB) leukemia
HOP-92 NSCLC = tested on: HOP-92 NSCLC
LOX IMVI melanoma = tested on: LOX IMVI melanoma
MCF7 breast = tested on: MCF7 breast
RPMI-8226 leukemia = tested on: RPMI-8226 leukemia
SF-268 CNS = tested on: SF-268 CNS
SF-539 CNS = tested on: SF-539 CNS
SK-MEL-2 melanoma = tested on: SK-MEL-2 melanoma
SK-OV-3 ovarian = tested on: SK-OV-3 ovarian
UO-31 renal = tested on: UO-31 renal

Row | Structure (SMILES) | GI50 (HL-60(TB) leukemia) | TGI (HL-60(TB) leukemia) | GI50 (HOP-92 NSCLC) | TGI (HOP-92 NSCLC) | GI50 (LOX IMVI melanoma) | TGI (LOX IMVI melanoma) | GI50 (MCF7 breast) | TGI (MCF7 breast) | GI50 (RPMI-8226 leukemia) | TGI (RPMI-8226 leukemia) | GI50 (SF-268 CNS) | TGI (SF-268 CNS) | GI50 (SF-539 CNS) | TGI (SF-539 CNS) | GI50 (SK-MEL-2 melanoma) | TGI (SK-MEL-2 melanoma) | GI50 (SK-OV-3 ovarian) | TGI (SK-OV-3 ovarian) | GI50 (UO-31 renal) | TGI (UO-31 renal)
1 | CCOC(=O)c1ccccc1SC(C[N+](=O)[O-])c1ccccc1 (centres undefined) | 5.96 µM | 27.9 µM | 6.94 µM | 21.9 µM | 1.81 µM | 3.51 µM | 1.07 µM | 4.12 µM | 2.44 µM | 5.53 µM | 6.06 µM | 19.2 µM | 3.23 µM | 12 µM | 18.9 µM | 36.6 µM | 12.7 µM | 26.5 µM | 2.43 µM | 7.22 µM
2 | CC[C@H](C)[C@H](NC(=O)NC(C)(C)C)C(=O)N(C)[C@H](C[C@@H](OC(C)=O)c1nc(C(=O)N[C@@H](Cc2ccccc2)C[C@H](C)C(=O)OC)cs1)C(C)C | 0.374 µM | 1.56 µM | 3 µM | > 25 µM | 0.768 µM | > 25 µM | 0.123 µM | > 25 µM | 0.263 µM | 4.2 µM | 0.867 µM | > 25 µM | 0.628 µM | 1.82 µM | 0.405 µM | > 25 µM | 0.734 µM | > 25 µM | 1.26 µM | > 25 µM
3 | CCCCCCCCCCC[C@@H](C[C@H]1OC(=O)[C@H]1CCCCCC)OC(=O)[C@@H](CC(C)C)NC=O | 1.75 µM | 4.34 µM | 1.55 µM | 16.1 µM | 1.65 µM | 9.6 µM | 3.07 µM | 13.8 µM | 0.855 µM | 8.81 µM | 2.31 µM | 21.9 µM | 5.48 µM | 31 µM | 6.04 µM | 24.8 µM | 10.1 µM | 62.8 µM | 2.52 µM | 59.6 µM
4 | CN1CCN(c2ccc3nc(-c4[nH]ncc4Nc4ncnc5c4OCCCN5)[nH]c3c2)CC1 | < 0.01 µM | 0.0298 µM | < 0.0107 µM | 0.0429 µM | < 0.01 µM | 0.0202 µM | < 0.01 µM | 0.145 µM | 0.0418 µM | 0.155 µM | < 0.0112 µM | 0.049 µM | < 0.01 µM | 0.0214 µM | 0.0124 µM | 0.0468 µM | < 0.0108 µM | 0.202 µM | 0.0179 µM | 0.0578 µM
5 | O=C(c1nn(-c2ccc(Cl)cc2)cc1O)n1nc(C(F)(F)F)cc1-c1ccccc1 | 2.42 µM | > 100 µM | 1.67 µM | > 21.4 µM | 1.88 µM | > 100 µM | 3.38 µM | > 100 µM | 1.91 µM | > 85.3 µM | 1.8 µM | > 100 µM | 2.7 µM | > 100 µM | 38.2 µM | > 100 µM | 2.53 µM | > 100 µM | 2.9 µM | > 100 µM
6 | CC#CC#C/C=C1\C=CC2(OC=CC2OC(C)=O)O1 (centres undefined) | – | 36.5 µM and > 86.7 µM | – | 51.6 µM and 44.1 µM | – | > 100 µM and 31.7 µM | – | 30.8 µM | – | > 100 µM | – | 85.4 µM and 46.1 µM | – | 76.9 µM and 48.8 µM | 90.2 µM and 28.9 µM | > 100 µM | – | > 100 µM | – | 30.8 µM and 36.2 µM
7 | CCOC(=O)Cn1c(-c2nonc2NC(=O)c2ccccc2F)nc2ccccc21 | – | > 100 µM | 22.1 µM | 67.9 µM | 0.309 µM | > 100 µM | 1.64 µM | > 100 µM | 7.5 µM | > 100 µM | 1.89 µM | > 100 µM | 1.67 µM | > 100 µM | 41.3 µM | > 85.5 µM | 21.3 µM | > 100 µM | 28.1 µM | > 100 µM
8 | O=C1NC(=O)[C@@H](c2c[nH]c3ccccc23)[C@@H]1c1c[nH]c2ccccc12 | > 25 µM | > 25 µM | 21.2 µM | > 25 µM | > 25 µM | > 25 µM | > 25 µM | > 25 µM | > 25 µM | > 25 µM | > 25 µM | > 25 µM | > 25 µM | > 25 µM | > 25 µM | > 25 µM | > 25 µM | > 25 µM | > 16.4 µM | > 25 µM
9 | COc1cc(-c2nc(-c3ccc(-c4nc5ccc(F)cc5[nH]4)cc3)no2)cc(OC)c1OC | 2.24 µM | 5.35 µM | 1.76 µM | 13.9 µM | 1.65 µM | 3.73 µM | 2.88 µM | 13.5 µM | 1.94 µM | 5.35 µM | 3.99 µM | 32.4 µM | 3.38 µM | 18.7 µM | 4.21 µM | 13.4 µM | 4.12 µM | 31.4 µM | 2.51 µM | 6.3 µM
10 | CCOC(=O)c1ccc(N(C=O)CCC(=O)CCl)cc1 | 0.0438 µM | 0.351 µM | 0.064 µM | 0.794 µM | 0.0586 µM | 1.31 µM | 0.0532 µM | – | 0.13 µM | 2.83 µM | 0.411 µM | 4.95 µM | 0.249 µM | 0.778 µM | 0.465 µM | 2.14 µM | 1.41 µM | 13.2 µM | 0.552 µM | 1.98 µM
11 | COc1cc(OC)c(F)c(COc2cnc(Nc3cnn(CCO)c3)nc2)c1F | 0.245 µM | 0.702 µM | 0.767 µM | 5.4 µM | 0.526 µM | > 22.6 µM | 0.417 µM | > 100 µM | 1.03 µM | > 100 µM | 1.03 µM | > 64.9 µM | 0.275 µM | 2.17 µM | 0.404 µM | 2.71 µM | 0.845 µM | 5.67 µM | 0.556 µM | > 20.5 µM
12 | CCCCCCCCCCCC1=NC(C)(C)CN1CC(C)O (centres undefined) | 2.44 µM | 5.68 µM | 2.06 µM | 13.6 µM | 1.85 µM | 4.42 µM | 2.05 µM | 4.77 µM | 1.58 µM | 4.18 µM | 7.35 µM | 19.9 µM | 1.67 µM | 3.14 µM | 2.41 µM | 6.12 µM | 12.4 µM | 24.8 µM | 4.75 µM | 18.7 µM
13 | CC[C@H]1CN(C)[C@H]2Cc3c([nH]c4ccccc34)C(=O)C[C@H]1C2C(=O)OC (some centres undefined) | – | > 100 µM | – | > 100 µM | – | > 100 µM | – | > 100 µM | – | > 100 µM | – | > 100 µM | – | > 100 µM | – | > 100 µM | – | > 100 µM | – | > 100 µM
14 | C[C@@H](Oc1cc(-n2cnc3ccc(OCC4CCN(C)CC4)cc32)sc1C(N)=O)c1ccccc1Cl | 0.044 µM | 0.543 µM | 0.156 µM | 2.51 µM | 0.0926 µM | 3.6 µM | 0.0123 µM | 3.68 µM | 0.094 µM | 4.61 µM | 0.112 µM | 4.07 µM | 0.107 µM | 1.62 µM | 0.0559 µM | 4.13 µM | 0.101 µM | 2.93 µM | 0.616 µM | 3.96 µM
15 | O=C(NO)c1ccc(Cn2c(=O)n(-c3ccccc3)c(=O)c3ccccc32)cc1 | 2.66 µM | > 100 µM | 1.6 µM | 4.18 µM | 1.26 µM | 2.62 µM | 1.73 µM | 60.2 µM | 0.689 µM | 93.5 µM | 1.38 µM | 4.52 µM | 0.693 µM | 2.86 µM | 1.22 µM | 3.34 µM | 1.3 µM | 3.17 µM | 1.77 µM | 4.63 µM
16 | NC(=O)c1sc(-n2cnc3ccc(C(F)(F)F)cc32)cc1OCc1ccccc1Br | 0.558 µM | 1.76 µM | 2.5 µM | 16.8 µM | 1.5 µM | > 25 µM | 0.805 µM | > 6.28 µM | 2.7 µM | > 21.2 µM | 1.32 µM | > 25 µM | 1.37 µM | > 17 µM | 1.31 µM | 11.3 µM | 1.36 µM | 9.41 µM | 5.48 µM | > 25 µM
17 | COc1ccc(C(=O)/C=C/c2cc(-c3ccc4c(c3)OCO4)n[nH]2)cc1OC | 2.82 µM | 11.8 µM | 2.16 µM | 8.11 µM | 1.97 µM | 4.08 µM | 3.27 µM | 16.8 µM | 1.03 µM | 5.24 µM | 2.53 µM | 7.61 µM | 1.91 µM | 4.47 µM | 6.93 µM | 23.2 µM | 3.97 µM | 26.4 µM | 2.32 µM | 10.1 µM
18 | CCCCCCCCNC(C)C(O)c1ccc(SC(C)C)cc1 (centres undefined) | 2.2 µM | 4.07 µM | 1.17 µM | 2.53 µM | 1.54 µM | 2.92 µM | 1.8 µM | 3.32 µM | 2.06 µM | 4.91 µM | 1.67 µM | 3.14 µM | 1.9 µM | 3.4 µM | 2.05 µM | 3.74 µM | 1.63 µM | 2.98 µM | 1.77 µM | 3.32 µM
19 | Nc1nccc2c1ccn2-c1cccc(NC(=O)c2ccc(N3CCOCC3)c(C(F)(F)F)c2)c1 | 1.09 µM | 7.83 µM | 0.347 µM | 3.23 µM | 0.997 µM | > 16.2 µM | 0.181 µM | > 18.5 µM | 0.992 µM | 4.98 µM | 1.21 µM | > 46.7 µM | 1.02 µM | 4 µM | 0.584 µM | 2.94 µM | 0.741 µM | 6.52 µM | 1.2 µM | 14 µM
